ChEMBL document CHEMBL3046652, “Photodimerization of heteroaryl chalcones: comparative antimicrobial activities of chalcones and their photoproducts” (2012)
Values after ≈ are worked out from the molar mass of the structure shown.

Key:
Assay type in all cases: functional
Candida albicans [1] = assay: Antimicrobial activity against Candida albicans at 20 ug/disk by disk diffusion method; settings: read-out: DIZ
Proteus vulgaris [2] = assay: Antimicrobial activity against Proteus vulgaris at 10 ug/disk by disk diffusion method; settings: read-out: DIZ
Serratia marcescens [3] = assay: Antimicrobial activity against Serratia marcescens by disk diffusion method
Klebsiella pneumoniae [4] = assay: Antimicrobial activity against Klebsiella pneumoniae at 10 ug/disk by disk diffusion method; settings: read-out: DIZ
Priestia megaterium [5] = assay: Antimicrobial activity against Bacillus megaterium by disk diffusion method
Citrobacter freundii [6] = assay: Antimicrobial activity against Citrobacter freundii at 10 ug/disk by disk diffusion method; settings: read-out: DIZ
Citrobacter freundii [7] = assay: Antimicrobial activity against Citrobacter freundii by disk diffusion method
Escherichia coli [8] = assay: Antimicrobial activity against Escherichia coli by disk diffusion method
Escherichia coli [9] = assay: Antimicrobial activity against Escherichia coli at 10 ug/disk by disk diffusion method; settings: read-out: DIZ
Salmonella typhi [10] = assay: Antimicrobial activity against Salmonella enterica subsp. enterica serovar Typhi at 10 ug/disk by disk diffusion method; settings: read-out: DIZ
Serratia marcescens [11] = assay: Antimicrobial activity against Serratia marcescens at 10 ug/disk by disk diffusion method; settings: read-out: DIZ
Fusarium verticillioides [12] = assay: Antimicrobial activity against Fusarium verticillioides at 20 ug/disk by disk diffusion method; settings: read-out: DIZ
Pseudomonas aeruginosa [13] = assay: Antimicrobial activity against Pseudomonas aeruginosa at 10 ug/disk by disk diffusion method; settings: read-out: DIZ
Aspergillus oryzae [14] = assay: Antimicrobial activity against Aspergillus oryzae at 10 ug/disk by disk diffusion method; settings: read-out: DIZ
Aspergillus niger [15] = assay: Antimicrobial activity against Aspergillus niger at 10 ug/disk by disk diffusion method; settings: read-out: DIZ
Micrococcus luteus [16] = assay: Antimicrobial activity against Micrococcus luteus at 10 ug/disc by disk diffusion method; settings: read-out: DIZ
Priestia megaterium [17] = assay: Antimicrobial activity against Bacillus megaterium at 10 ug/disk by disk diffusion method; settings: read-out: DIZ
Salmonella typhi [18] = assay: Antimicrobial activity against Salmonella enterica subsp. enterica serovar Typhi by disk diffusion method
Klebsiella pneumoniae [19] = assay: Antimicrobial activity against Klebsiella pneumoniae by disk diffusion method
Micrococcus luteus [20] = assay: Antimicrobial activity against Micrococcus luteus by disk diffusion method
Pseudomonas aeruginosa [21] = assay: Antimicrobial activity against Pseudomonas aeruginosa by disk diffusion method
Proteus vulgaris [22] = assay: Antimicrobial activity against Proteus vulgaris by disk diffusion method
Pseudomonas aeruginosa [23] = assay: Antimicrobial activity against Pseudomonas aeruginosa at 10 to 60 ug/disk by disk diffusion method
Candida albicans [24] = assay: Antimicrobial activity against Candida albicans at 10 to 60 ug/disk by disk diffusion method
Proteus vulgaris [25] = assay: Antimicrobial activity against Proteus vulgaris at 10 to 60 ug/disk by disk diffusion method
Escherichia coli [26] = assay: Antimicrobial activity against Escherichia coli at 10 to 60 ug/disk by disk diffusion method
Fusarium verticillioides [27] = assay: Antimicrobial activity against Fusarium verticillioides at 10 to 60 ug/disk by disk diffusion method
Klebsiella pneumoniae [28] = assay: Antimicrobial activity against Klebsiella pneumoniae at 10 to 60 ug/disk by disk diffusion method
Citrobacter freundii [29] = assay: Antimicrobial activity against Citrobacter freundii at 10 to 60 ug/disk by disk diffusion method
Priestia megaterium [30] = assay: Antimicrobial activity against Bacillus megaterium at 10 to 60 ug/disk by disk diffusion method
Aspergillus oryzae [31] = assay: Antimicrobial activity against Aspergillus oryzae at 10 to 60 ug/disk by disk diffusion method
Salmonella typhi [32] = assay: Antimicrobial activity against Salmonella enterica subsp. enterica serovar Typhi at 10 to 60 ug/disk by disk diffusion method
Aspergillus niger [33] = assay: Antimicrobial activity against Aspergillus niger at 10 to 60 ug/disk by disk diffusion method
Micrococcus luteus [34] = assay: Antimicrobial activity against Micrococcus luteus at 10 to 60 ug/disc by disk diffusion method
Serratia marcescens [35] = assay: Antimicrobial activity against Serratia marcescens at 10 to 60 ug/disk by disk diffusion method
Fusarium verticillioides [36] = assay: Antimicrobial activity against Fusarium verticillioides at 40 ug/disk by disk diffusion method; settings: read-out: DIZ
Citrobacter freundii [37] = assay: Antimicrobial activity against Citrobacter freundii at 20 ug/disk by disk diffusion method; settings: read-out: DIZ
Pseudomonas aeruginosa [38] = assay: Antimicrobial activity against Pseudomonas aeruginosa at 40 ug/disk by disk diffusion method; settings: read-out: DIZ
Klebsiella pneumoniae [39] = assay: Antimicrobial activity against Klebsiella pneumoniae at 20 ug/disk by disk diffusion method; settings: read-out: DIZ
Candida albicans [40] = assay: Antimicrobial activity against Candida albicans at 40 ug/disk by disk diffusion method; settings: read-out: DIZ
Aspergillus niger [41] = assay: Antimicrobial activity against Aspergillus niger at 50 ug/disk by disk diffusion method; settings: read-out: DIZ
Aspergillus oryzae [42] = assay: Antimicrobial activity against Aspergillus oryzae at 30 ug/disk by disk diffusion method; settings: read-out: DIZ
Candida albicans [43] = assay: Antimicrobial activity against Candida albicans at 10 ug/disk by disk diffusion method; settings: read-out: DIZ

Structure (SMILES) | zone of inhibition at 10 µg/disc (Proteus vulgaris [2]) [mm] | MIC (Serratia marcescens [3]) [µg/mL] | MIC (Priestia megaterium [5]) [µg/mL] | MIC (Citrobacter freundii [7]) [µg/mL] | MIC (Escherichia coli [8]) [µg/mL] | zone of inhibition at 10 µg/disc (Escherichia coli [9]) [mm] | zone of inhibition at 10 µg/disc (Salmonella typhi [10]) [mm] | diameter of the inhibition zone (DIZ) (Pseudomonas aeruginosa [23]) [mm] | diameter of the inhibition zone (DIZ) (Candida albicans [24]) [mm] | diameter of the inhibition zone (DIZ) (Proteus vulgaris [25]) [mm] | diameter of the inhibition zone (DIZ) (Escherichia coli [26]) [mm] | diameter of the inhibition zone (DIZ) (Fusarium verticillioides [27]) [mm] | diameter of the inhibition zone (DIZ) (Klebsiella pneumoniae [28]) [mm] | diameter of the inhibition zone (DIZ) (Citrobacter freundii [29]) [mm] | diameter of the inhibition zone (DIZ) (Priestia megaterium [30]) [mm] | diameter of the inhibition zone (DIZ) (Aspergillus oryzae [31]) [mm] | diameter of the inhibition zone (DIZ) (Salmonella typhi [32]) [mm] | diameter of the inhibition zone (DIZ) (Aspergillus niger [33]) [mm] | diameter of the inhibition zone (DIZ) (Micrococcus luteus [34]) [mm] | diameter of the inhibition zone (DIZ) (Serratia marcescens [35]) [mm] | further results
O=C(/C=C/c1ccccc1)c1ccco1 | 8 | 10 (≈ 50.4 µM) | 10 (≈ 50.4 µM) | 10 (≈ 50.4 µM) | 10 (≈ 50.4 µM) | 5 | 5 | – | – | – | – | – | – | – | – | – | – | – | – | – | zone of inhibition at 20 µg/disc (Candida albicans [1]): 7 mm; zone of inhibition at 10 µg/disc (Klebsiella pneumoniae [4]): 7 mm; zone of inhibition at 10 µg/disc (Citrobacter freundii [6]): 13 mm; zone of inhibition at 10 µg/disc (Serratia marcescens [11]): 5 mm; zone of inhibition at 20 µg/disc (Fusarium verticillioides [12]): 7 mm; zone of inhibition at 10 µg/disc (Pseudomonas aeruginosa [13]): 5 mm; zone of inhibition at 10 µg/disc (Aspergillus oryzae [14]): 8 mm; zone of inhibition at 10 µg/disc (Aspergillus niger [15]): 11 mm; zone of inhibition at 10 µg/disc (Micrococcus luteus [16]): 11 mm; zone of inhibition at 10 µg/disc (Priestia megaterium [17]): 11 mm; MIC (Salmonella typhi [18]): 10 µg/mL (≈ 50.4 µM); MIC (Klebsiella pneumoniae [19]): 10 µg/mL (≈ 50.4 µM); MIC (Micrococcus luteus [20]): 10 µg/mL (≈ 50.4 µM); MIC (Pseudomonas aeruginosa [21]): 10 µg/mL (≈ 50.4 µM); MIC (Proteus vulgaris [22]): 10 µg/mL (≈ 50.4 µM)
OC(/C=C/c1ccco1)(c1ccccc1)C(O)(/C=C/c1ccco1)c1ccccc1 (centres undefined) | – | – | – | – | – | – | – | 5 | 5 | 9 | 5 | 7 | 5 | 9 | 7 | 5 | 5 | 9 | 6 | 5 | –
O=C(c1cccs1)C1C(C(=O)c2cccs2)C(c2ccccc2)C1c1ccccc1 (centres undefined) | – | – | – | – | – | – | – | 5 | 5 | 5 | 5 | 5 | 5 | 5 | 9 | 5 | 6 | 5 | 7 | 5 | –
O=C(/C=C/c1ccc[nH]1)c1ccccc1 | 5 | 10 (≈ 50.7 µM) | 10 (≈ 50.7 µM) | 10 (≈ 50.7 µM) | 10 (≈ 50.7 µM) | 6 | 5 | – | – | – | – | – | – | – | – | – | – | – | – | – | zone of inhibition at 40 µg/disc (Fusarium verticillioides [36]): 6 mm; zone of inhibition at 20 µg/disc (Citrobacter freundii [37]): 9 mm; zone of inhibition at 40 µg/disc (Pseudomonas aeruginosa [38]): 9 mm; zone of inhibition at 20 µg/disc (Klebsiella pneumoniae [39]): 9 mm; zone of inhibition at 10 µg/disc (Serratia marcescens [11]): 7 mm; zone of inhibition at 40 µg/disc (Candida albicans [40]): 7 mm; zone of inhibition at 50 µg/disc (Aspergillus niger [41]): 8 mm; zone of inhibition at 10 µg/disc (Aspergillus oryzae [14]): 9 mm; zone of inhibition at 10 µg/disc (Micrococcus luteus [16]): 7 mm; zone of inhibition at 10 µg/disc (Priestia megaterium [17]): 12 mm; MIC (Salmonella typhi [18]): 10 µg/mL (≈ 50.7 µM); MIC (Klebsiella pneumoniae [19]): 10 µg/mL (≈ 50.7 µM); MIC (Micrococcus luteus [20]): 10 µg/mL (≈ 50.7 µM); MIC (Pseudomonas aeruginosa [21]): 10 µg/mL (≈ 50.7 µM); MIC (Proteus vulgaris [22]): 10 µg/mL (≈ 50.7 µM)
OC(/C=C/c1cccs1)(c1ccccc1)C(O)(/C=C/c1cccs1)c1ccccc1 (centres undefined) | – | – | – | – | – | – | – | 5 | 5 | 5 | 5 | 5 | 7 | 5 | 5 | 5 | 7 | 5 | 8 | 5 | –
O=C(c1ccc[nH]1)C1C(C(=O)c2ccc[nH]2)C(c2ccccc2)C1c1ccccc1 (centres undefined) | – | – | – | – | – | – | – | 6 | 5 | 5 | 5 | 5 | 5 | 5 | 5 | 5 | 5 | 5 | 5 | 5 | –
OC(/C=C/c1ccc[nH]1)(c1ccccc1)C(O)(/C=C/c1ccc[nH]1)c1ccccc1 (centres undefined) | – | – | – | – | – | – | – | 5 | 5 | 5 | 5 | 5 | 5 | 5 | 5 | 9 | 5 | 5 | 5 | 5 | –
O=C(c1ccco1)C1C(C(=O)c2ccco2)C(c2ccccc2)C1c1ccccc1 (centres undefined) | – | – | – | – | – | – | – | 5 | 5 | 7 | 5 | 6 | 5 | 5 | 5 | 5 | 5 | 5 | 7 | 5 | –
O=C(/C=C/c1ccco1)c1ccccc1 | 9 | 10 (≈ 50.4 µM) | 20 (≈ 101 µM) | 10 (≈ 50.4 µM) | 10 (≈ 50.4 µM) | 5 | 5 | – | – | – | – | – | – | – | – | – | – | – | – | – | zone of inhibition at 10 µg/disc (Klebsiella pneumoniae [4]): 6 mm; zone of inhibition at 10 µg/disc (Citrobacter freundii [6]): 7 mm; zone of inhibition at 30 µg/disc (Aspergillus oryzae [42]): 8 mm; zone of inhibition at 10 µg/disc (Serratia marcescens [11]): 7 mm; zone of inhibition at 20 µg/disc (Fusarium verticillioides [12]): 7 mm; zone of inhibition at 10 µg/disc (Pseudomonas aeruginosa [13]): 5 mm; zone of inhibition at 10 µg/disc (Candida albicans [43]): 9 mm; zone of inhibition at 10 µg/disc (Aspergillus niger [15]): 8 mm; zone of inhibition at 10 µg/disc (Micrococcus luteus [16]): 9 mm; zone of inhibition at 10 µg/disc (Priestia megaterium [17]): 9 mm; MIC (Salmonella typhi [18]): 10 µg/mL (≈ 50.4 µM); MIC (Klebsiella pneumoniae [19]): 10 µg/mL (≈ 50.4 µM); MIC (Micrococcus luteus [20]): 10 µg/mL (≈ 50.4 µM); MIC (Pseudomonas aeruginosa [21]): 10 µg/mL (≈ 50.4 µM); MIC (Proteus vulgaris [22]): 20 µg/mL (≈ 101 µM)
